Experimental data as given in patent US7683055B2, “Lanthionine-related compounds for the treatment of inflammatory diseases” (Oklahoma Medical Research Foundation, priority 2006, dated 2010).

How the values were obtained:
NSC-34 cells = test: NSC-34 viability after H2O2 challenge (tetrazolium reduction); format: cell-based, mouse; details: for protection against H2O2: 0.5 mM, 6 h pretreatment, 1 mM H2O2, viability 24 h later
Experimental: NSC-34 cells were challenged directly with H2O2 for 24 h and the viability was assessed by tetrazolium reduction assay.
Furthermore, the invention contemplates that cytoprotection might be achieved by providing metabolic precursors to LK, rather than direct addition of the compound. For example, the inventor has studied the effects of NSC-34 cells treated with ethyl pyruvate in the presence or absence of lanthionine for 6 h prior to challenge with H2O2 and has assayed the viability of these cells 24 h later (FIG. 10). As reported in previous studies, ethyl pyruvate alone was protective against peroxide-induced cell death (Desagher et al., 1997; Nakamichi et al., 2005) with complete protection at ethyl pyruvate concentrations >1 mM (approximately 2-fold higher than ambient cell culture medium pyruvate concentrations; data not shown).
(R)-LKE1 protects NSC-34 motoneuron x neuroblastoma hybrid cells from hydrogen peroxide toxicity (FIG. 4). Cells were treated with the indicated concentration of (R)-LKE1. Thirty minutes later cells were challenged with the indicated concentration of hydrogen peroxide. Cell viability was assayed 24 hours later by tetrazolium reduction using a commercially available kit (Promega).
NSC-34 motor neuron-like cells, derived through the fusion of a neuroblastoma cell line with embryonic mouse motor neurons (Cashman et al., 1992), were grown in Dulbeco's modified essential medium (DMEM) plus 5% fetal bovine serum (FBS) and 1% penicillin plus 1% streptomycin (Pen/Strep). Recombinant TNFα and interferon gamma (IFNγ) were purchased from BD Biosciences (Pasadena Calif. USA). Lanthionine was purchased from Sequoia Research Products Ltd. (Pangbourne, UK). All other reagents were of the highest available commercial purity.
NSC-34 cells were exposed to 1 mM H2O2 with or without ethyl-pyruvate and/or lantionine (LK).

EOC-20 microglia = test: TNFα-stimulated nitrite production in EOC-20 microglia (Griess assay); format: cell-based, mouse; details: for net suppression of nitrite: TNFα-stimulated, nitrite measured 24 h later
Experimental: Mouse EOC-20 microglia (American Tissue Type Collection, Gaithersville Md. USA) (Hensley et al., 2003; Walker et al., 1995) were grown in DMEM containing 20% L929 fibroblast-supplemented medium. Nitrite production by cytokine stimulated microglia was measured in cell culture medium using the Griess diazotization reaction as previously reported (Hensley et al., 2003; West et al., 2004).
The efficacy of (R)-LKE1 and (R)-LK as inhibitors of microglial cell activation in response to pro-inflammatory cytokines is shown in FIGS. 1A & 1B. EOC-20 murine microglial cells were pretreated 30 minutes with test compounds (e.g. (R)-LK or (R)-LKE1) dissolved in DMSO and diluted 1:200 into cell culture medium; or with DMSO vehicle only. Cells were then challenged with cytokine and allowed to incubate undisturbed in the cell culture incubator for 24 h prior to Griess assay. The lanthionine ketimine ester in this case is the structure shown above as (R)-LKE1. After drug treatment cells were then stimulated with 40 ng/mL recombinant murine tumor necrosis factor alpha (TNF α) plus 50U/mL interferon gamma (IFNγ). Nitrite (NO2^−) was measured in the cell culture medium 24 hours later, as an index of nitric oxide production. Cell viability was then assayed in the same cultures using a commercially available tetrazolium reduction assay (Promega OneStep™; Promega, Gaithersburg Md.). Cell culture methods were those published by the inventor (Hensley et al., 2003; West et al., 2004).
In a EOC-20 microglial assay the cells were stimulated with TNFα in the presence or absence of 100 microM (R)- or (S)-LK, and nitrite was measured 24 h later, the net suppression of nitrite was 13% by (S)-LK and 15% by (R)-LK.
The reduced lanthionine ketimine (i.e., TMDCA) was also tested against TNFα-stimulated nitrite production in the EOC-20 screen.

HT4 cells = test: glutamate toxicity in HT4 cells (LDH leakage); format: cell-based
Experimental: (§1) FIG. 13. (R)-LK protects HT4 cells against excitotoxicity. Determination of cell viability: HT4 cells were seeded in 6 well plates (1×10^7 cell/well). After 24 h, cell media was changed and (R)-LK (in DMSO) was used for 1 h prior to glutamate challenge. Powdered (R)-LK was dissolved in DMSO just before use. The viability of cells in culture was assessed by measuring the leakage of lactate dehydrogenase (LDH) from cells to media 18-24 h following glutamate treatment using the in vitro toxicology assay kit from Sigma Chemical Co. (St. Louis, Mo., USA). LDH leakage was determined using the following equation: % of total LDH leaked=(LDH activity in the cell culture media/total LDH activity) where total LDH activity=LDH activity in cell monolayer+LDH activity of detached cells+LDH activity in the cell culture media.
as §1, with “14. (R)-LKE1” for “13. (R)-LK”, “Determination of cell viability: HT4 cells were seeded in 6 well plates (1×10^7 cell/well). After 24 h, cell media was changed and (R)-LK (in DMSO) was used for 1 h prior to glutamate challenge. Powdered (R)-LK was dissolved in DMSO just before use.” left out, “media. […]” for “media.”

synaptosomal membranes = details: read-out: affinity of binding to synaptosomal membranes; cited from earlier work

## O=C(O)C1=N[C@H](C(=O)O)CSC1 [(R)-LK]
NSC-34 cells; H2O2 challenge 24 h
  protection from H2O2-induced cell death: protects NSC-34 motor-neuron like cells from hydrogen peroxide toxicity
EOC-20 microglia; 100 microM
  net suppression of nitrite: 15%

## CCOC(=O)C(C)=O [ethyl pyruvate]
NSC-34 cells
  protection against H2O2: significant but partial protection
NSC-34 cells; data not shown
  concentration giving complete protection against peroxide-induced cell death: > 1 mM

## N[C@@H](CSC[C@H](N)C(=O)O)C(=O)O [lanthionine]
NSC-34 cells
  protection against H2O2: no protective effect

## O=C(O)C1=CSC[C@H](C(=O)O)N1 [(S)-LK]
EOC-20 microglia; 100 microM
  net suppression of nitrite: 13%

## lanthionine ketimine [LK]
HT4 cells
  glutamate toxicity (LDH release): significantly diminished glutamate toxicity
Synaptosomal membranes
  Kd: 50 nM
EOC-20 microglia; TNFα-stimulated EOC-20 microglia
  inhibition of nitrite production: inhibited nitrite production

## O=C(O)C1CSCC(C(=O)O)N1 (centres unmarked) [TMDCA, thiomorpholine dicarboxylic acid]
EOC-20 microglia; 100 microM, TNFα-stimulated nitrite production
  inhibition of the cytokine effect: about 32.5%
EOC-20 microglia; 100 microM, TNFα-stimulated nitrite production, +/- SD
  microglial activation, % of the maximum: 67.5+/−3.8%
